{
  "source": "patent US20180318246A1",
  "about": "(SUN PHARMACEUTICAL INDUSTRIES LIMITED, priority 2015, published 2018)",
  "origin": "cited, not measured here",
  "note": "Where a name gives a salt, the structure may show the parent alone.",
  "data": [
    {"compound": "COC(=O)/C=C/C(=O)OC", "note": "[dimethyl fumarate]", "values": [
      {"measurement": "Permeability coefficient compared with monomethyl fumarate", "result": "significantly higher"}
    ]}
  ]
}
